This is an account of results in US9028845B2, “Chimeric immunomodulatory compounds and methods of using the same-IV” (Dynavax Technologies Corporation, priority 2001, dated 2015).

The subject of assay [1] is human PBMCs. Put plainly: Human PBMC cytokine response assay (IFN-γ and IFN-α in cell-free medium by ELISA), with or without cPLGA.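 On IFN-α (pg/ml) mean: 20 µg/mL compound for 24 hours.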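 On IFN-γ (pg/ml) mean: 20 µg/mL compound for 24 hours.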 It is filed as cell-based. Particulars: for IFN-γ (pg/ml) 28065: donor 28065 (high background), 1000 = outside assay limits; for IFN-γ (pg/ml) 28065 / IFN-α (pg/ml) 28065 / IFN-α (pg/ml) 28066 / IFN-γ (pg/ml) 28066 / IFN-α (pg/ml) 28067 / IFN-γ (pg/ml) 28067 / IFN-α (pg/ml) 28068 / IFN-γ (pg/ml) 28068 / IFN-α (pg/ml) mean / IFN-γ (pg/ml) mean: 20 ug/ml, 24 h, + PLGA = premixed with 100 μg/ml cPLGA; for IFN-α (pg/ml) 28065: donor 28065; for IFN-α (pg/ml) 28066 / IFN-γ (pg/ml) 28066: donor 28066; for IFN-α (pg/ml) 28067 / IFN-γ (pg/ml) 28067: donor 28067; for IFN-α (pg/ml) 28068 / IFN-γ (pg/ml) 28068: donor 28068; for IFN-α (pg/ml) mean / IFN-γ (pg/ml) mean: mean of donors 28065-28068; for IFN-α mean / IFN-γ mean: mean of donors. Background: In an ELISA, binding on a coated surface is turned into a signal by an enzyme label.

Assay [2] concerns CD19+ B cells. Put plainly: Human B cell proliferation assay (3H-thymidine incorporation). The conditions noted are these: 2 μg/ml; for cpm1 / cpm2 / cpm3 / mean cpm / mean of both: B cells, Experiment B; for mean of both: mean of donors 121 and 194. In general terms: Dividing cells build labelled thymidine or BrdU into new DNA.

For the substance “5′-TCGTCG-3′-C4-5′-ACGTTCG-3′-C4-5′-AGATGAT-3′ [Compound C-17]”, in assay [1], the “IFN-γ (pg/ml) 28065” value came to 1000 pg/mL, the “IFN-α (pg/ml) 28065” value was 21 pg/mL, the “IFN-α (pg/ml) 28066” value came out at 0 pg/mL and the “IFN-γ (pg/ml) 28066” value stood at 6 pg/mL. Further, in assay [1], the “IFN-α (pg/ml) 28067” value stood at 22 pg/mL, the “IFN-γ (pg/ml) 28067” value was determined as 32 pg/mL, the “IFN-α (pg/ml) 28068” value is 95 pg/mL and the “IFN-γ (pg/ml) 28068” value was 459 pg/mL. Further, in assay [1], the “IFN-α (pg/ml) mean” value stood at 34 pg/mL and the “IFN-γ (pg/ml) mean” value came to 374 pg/mL. In assay [2] (donor 121), this substance registered a cpm1 of 27975 cpm, a cpm2 of 30426 cpm and a cpm3 of 9895 cpm. The substance further displayed a mean cpm in assay [2] (donor 121 mean) of 22765 cpm. In assay [2] (donor 194), this substance displayed a cpm1 of 17467 cpm, a cpm2 of 14890 cpm and a cpm3 of 10518 cpm. For the same substance, the mean cpm in assay [2] (donor 194 mean) is on record as 14292 cpm. In assay [2], this substance had a mean of both of 18529 cpm.

For “5′-TCGTCG-3′-C12-5′-ACGTTCG-3′-C12-5′-AGATGAT-3′ [Compound C-19]”, in assay [1], the “IFN-γ (pg/ml) 28065” value was 84 pg/mL, the “IFN-α (pg/ml) 28065” value came to 0 pg/mL, the “IFN-α (pg/ml) 28066” value amounted to 1 pg/mL and the “IFN-γ (pg/ml) 28066” value is 8 pg/mL. Moreover, in assay [1], the “IFN-α (pg/ml) 28067” value turned out to be 0 pg/mL, the “IFN-γ (pg/ml) 28067” value stood at 1 pg/mL, the “IFN-α (pg/ml) 28068” value came to 13 pg/mL and the “IFN-γ (pg/ml) 28068” value stood at 2 pg/mL. Moreover, in assay [1], the “IFN-α (pg/ml) mean” value is 4 pg/mL and the “IFN-γ (pg/ml) mean” value was found to be 24 pg/mL. The “immunomodulatory activity (IFN-γ / IFN-α secretion), in words” value in assay [1] (used alone (no cPLGA)) is “did not show activity”. In addition, the “B cell proliferation, in words” value in assay [2] (48 h plus 8 h 3H-thymidine pulse) is “inactive”. In assay [2] (donor 121), the cpm1 worked out at 858 cpm, the cpm2 stood at 1099 cpm and the cpm3 is on record as 926 cpm. This substance yielded a mean cpm in assay [2] (donor 121 mean) of 961 cpm. For the same substance, in assay [2] (donor 194), the cpm1 is 371 cpm, the cpm2 is 403 cpm and the cpm3 came out at 312 cpm. Besides, the mean cpm in assay [2] (donor 194 mean) is reported as 362 cpm. In assay [2], this substance registered a mean of both of 662 cpm.

As for “5′-TCGTCG-3′-HEG-5′-TCGTCG-3′-HEG-5′-TCGTCG-3′ [Compound C-22]”, the IFN-α in assay [1] (Table 9, donor 28089) was 0 pg/mL; in assay [1] (Table 9, donor 28090) it was 46 pg/mL; in assay [1] (Table 9, donor 28098) it was 97 pg/mL; in assay [1] (Table 9, donor 28099), 247 pg/mL; in assay [1] (Table 10, donor 28042), 12 pg/mL; in assay [1] (Table 10, donor 28043) it was 18 pg/mL. The IFN-α in assay [1] (Table 10, donor 28044) is 67 pg/mL; in assay [1] (Table 10, donor 28045) it was 30 pg/mL. Moreover, the IFN-γ in assay [1] (Table 9, donor 28089) is 31 pg/mL; in assay [1] (Table 9, donor 28090), 15 pg/mL; in assay [1] (Table 9, donor 28098) it was 110 pg/mL; in assay [1] (Table 9, donor 28099), 91 pg/mL; in assay [1] (Table 10, donor 28042) it was 206 pg/mL; in assay [1] (Table 10, donor 28043) it was 343 pg/mL. The IFN-γ in assay [1] (Table 10, donor 28044) was found to be 736 pg/mL; in assay [1] (Table 10, donor 28045) it was 40 pg/mL. Further, the IFN-α mean came out at 97 pg/mL in assay [1] (Table 9) and 32 pg/mL in assay [1] (Table 10). Also, the figures for the IFN-γ mean in assay [1] (Table 9) and in assay [1] (Table 10) were 62 pg/mL and 331 pg/mL, respectively. In addition, in assay [1] (formulated with cPLGA), the “activity when formulated with cPLGA, in words” value is “induced considerable IFN-γ and IFN-α when formulated with cPLGA”. Also, the “IFN-γ induction, in words” value in assay [1] (used alone) was “induce IFN-γ when used alone”. The cpm1 is recorded as 17147 cpm in assay [2] (donor 121) and 6472 cpm in assay [2] (donor 194). Also, the cpm2 in assay [2] (donor 121) is given as 14014 cpm; in assay [2] (donor 194), 5540 cpm. The cpm3 in assay [2] (donor 121) is listed as 6844 cpm; in assay [2] (donor 194), 3894 cpm. Further, the mean cpm in assay [2] (donor 121 mean) was found to be 12668 cpm; in assay [2] (donor 194 mean) it was 5302 cpm. The substance also showed a mean of both in assay [2] of 8985 cpm.

For “5′-TCGTCG-3′-HME-5′-ACGTTCG-3′-HME-5′-AGATGAT-3′ [Compound C-25]”, in assay [1], the “IFN-γ (pg/ml) 28065” value was 541 pg/mL, the “IFN-α (pg/ml) 28065” value was 11 pg/mL, the “IFN-α (pg/ml) 28066” value was determined as 0 pg/mL and the “IFN-γ (pg/ml) 28066” value amounted to 6 pg/mL. Further, in assay [1], the “IFN-α (pg/ml) 28067” value was 22 pg/mL, the “IFN-γ (pg/ml) 28067” value came to 19 pg/mL, the “IFN-α (pg/ml) 28068” value turned out to be 79 pg/mL and the “IFN-γ (pg/ml) 28068” value was determined as 337 pg/mL. Besides, in assay [1], the “IFN-α (pg/ml) mean” value was 28 pg/mL and the “IFN-γ (pg/ml) mean” value was 226 pg/mL. Moreover, in assay [2] (donor 121), the cpm1 is 34360 cpm, the cpm2 came out at 35016 cpm and the cpm3 came out at 26480 cpm. The mean cpm in assay [2] (donor 121 mean) was determined as 31952 cpm. In assay [2] (donor 194), this substance yielded a cpm1 of 16060 cpm, a cpm2 of 19509 cpm and a cpm3 of 17384 cpm. In addition, the mean cpm in assay [2] (donor 194 mean) is 17651 cpm. In assay [2], the mean of both is reported as 24802 cpm.

In the case of “5′-TCGTCG-3′-TEG-5′-ACGTTCG-3′-TEG-5′-AGATGAT-3′ [Compound C-18]”, in assay [1], the “IFN-γ (pg/ml) 28065” value is 1000 pg/mL, the “IFN-α (pg/ml) 28065” value turned out to be 51 pg/mL, the “IFN-α (pg/ml) 28066” value is 9 pg/mL and the “IFN-γ (pg/ml) 28066” value came to 102 pg/mL. Also, in assay [1], the “IFN-α (pg/ml) 28067” value came out at 16 pg/mL, the “IFN-γ (pg/ml) 28067” value is 27 pg/mL, the “IFN-α (pg/ml) 28068” value was 162 pg/mL and the “IFN-γ (pg/ml) 28068” value worked out at 695 pg/mL. Also, in assay [1], the “IFN-α (pg/ml) mean” value was found to be 59 pg/mL and the “IFN-γ (pg/ml) mean” value was 456 pg/mL. Further, in assay [2] (donor 121), the cpm2 is given as 17085 cpm and the cpm3 worked out at 14653 cpm. Also, the mean cpm in assay [2] (donor 121 mean) came out at 15869 cpm. In assay [2] (donor 194), the cpm1 is reported as 10028 cpm, the cpm2 came out at 12217 cpm and the cpm3 is on record as 10538 cpm. The same substance yielded a mean cpm in assay [2] (donor 194 mean) of 10928 cpm. Besides, in assay [2], the mean of both was determined as 13398 cpm.

As for “5′-TCGTCG-3′-abasic-5′-ACGTTCG-3′-abasic-5′-AGATGAT-3′ [Compound C-20]”, in assay [1], the “IFN-γ (pg/ml) 28065” value worked out at 354 pg/mL, the “IFN-α (pg/ml) 28065” value came out at 21 pg/mL, the “IFN-α (pg/ml) 28066” value is 5 pg/mL and the “IFN-γ (pg/ml) 28066” value turned out to be 13 pg/mL. Moreover, in assay [1], the “IFN-α (pg/ml) 28067” value amounted to 13 pg/mL, the “IFN-γ (pg/ml) 28067” value was found to be 16 pg/mL, the “IFN-α (pg/ml) 28068” value stood at 64 pg/mL and the “IFN-γ (pg/ml) 28068” value was determined as 505 pg/mL. In assay [1], the “IFN-α (pg/ml) mean” value was found to be 26 pg/mL and the “IFN-γ (pg/ml) mean” value stood at 222 pg/mL. In assay [2] (donor 121), this substance returned a cpm1 of 31276 cpm, a cpm2 of 30851 cpm and a cpm3 of 28532 cpm. The substance further showed a mean cpm in assay [2] (donor 121 mean) of 30220 cpm. In assay [2] (donor 194), this substance registered a cpm1 of 18082 cpm, a cpm2 of 18705 cpm and a cpm3 of 17481 cpm. In addition, the mean cpm in assay [2] (donor 194 mean) turned out to be 18089 cpm. Moreover, in assay [2], the mean of both was determined as 24155 cpm.
